Measured values taken from patent US20250304623A1, “PEPTIDES FOR INTRACELLULAR DELIVERY” (UNIVERSIDADE DE SANTIAGO DE COMPOSTELA, priority 2022, published 2025).
*: point of attachment. NHNH2 = NN*

Columns and labels:
Type in all cases: cell-based
Hela cells = experiment: EGFP mRNA delivery, robotic library screening, HeLa
Procedure, shortened: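 Transfection used amphiphile at final 2.5, 5 or 10 μM with EGFP mRNA (25 ng/well) for 4 h without serum, then medium with 10% FBS. Plate-reader EGFP signal at 72 h, untreated background removed, mean of triplicates.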

[1] = tested on: ARPE19 cells expressing EGFP; experiment: EGFP-targeting siRNA delivery (GFP silencing vs siMOCK), ARPE19
Procedure, shortened: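 This siRNA delivery assay used stably EGFP-expressing cells seeded a day ahead in 96-well plates. siGFP and amphiphile were combined in DMEM at a constant 30 nM siRNA, incubated 30 min at room temperature, then applied for 4 h before switching to fresh DMEM with 10% FBS. After 72 h, a plate reader measured fluorescence decrease relative to non-targeting siMOCK, subtracting untreated background.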

[2] = tested on: HepG2 cells expressing EGFP; experiment: Cas9-RNP delivery against EGFP (gene editing, plate reader), HepG2
Procedure, shortened: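 Gene editing in EGFP-expressing HepG2 cells was estimated as the percentage drop in GFP fluorescence, measured in triplicate on a plate reader 72 h after Cas9-RNP delivery with amphiphiles. The RNP was made from annealed crRNA/tracrRNA plus 4 μM Cas9 and complexed with amphiphile before a 4 h exposure. Background from untreated control cells was subtracted.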

Question: With “Ac-RRLK*RLLRRLK*RL-NH2 (Ac-RRLK(NHNH2)RLLRRLK(NHNH2)RL-NH2; not fully specified; printed as Ac-RRLK*RLLRRLK*RL-NH2; also: K*4,K*11: native or modified lysine (ε-amide to a linker)) [Peptide 13.2]” as the substance, how does the “mean fluorescence intensity (EGFP mRNA)” value (Hela cells; HeLa, Oleyl, 5 μM) read?
Answer: The value was 273.

Question: What about the “percentage of GFP-silencing relative to siMOCK” value ([1]; Oleyl, 10 μM) of the same substance?
Answer: Its value is 22%.

Question: What about the “percentage of GFP-silencing relative to siMOCK” value ([1]; Oleyl, 15 μM) of the same substance?
Answer: The value was 1%.

Question: What about the “percentage of gene editing, GFP fluorescence intensity decrease (% of reduction)” value ([2]; Dodecanal, 5 μM) of the same substance?
Answer: The value was −36%.

Question: And the “percentage of gene editing, GFP fluorescence intensity decrease (% of reduction)” value ([2]; Dodecanal, 10 μM)?
Answer: Its value is −41%.

Question: And the “percentage of gene editing, GFP fluorescence intensity decrease (% of reduction)” value ([2]; Dodecanal, 15 μM)?
Answer: Its value is 9%.

Question: What about the “percentage of gene editing, GFP fluorescence intensity decrease (% of reduction)” value ([2]; Oleyl, 10 μM) of the same substance?
Answer: The value was −21%.

Question: What about the “percentage of gene editing, GFP fluorescence intensity decrease (% of reduction)” value ([2]; Oleyl, 15 μM) of the same substance?
Answer: The value was −33%.

Question: Which “mean fluorescence intensity (EGFP mRNA)” value (Hela cells; HeLa, Dodecanal, 5 μM) does the source give for “Ac-RRLK*RLLRRLK*RLK*RRL-NH2 (Ac-RRLK(NHNH2)RLLRRLK(NHNH2)RLK(NHNH2)RRL-NH2; not fully specified; printed as Ac-RRLK*RLLRRLK*RLK*RRL-NH2; also: K*4,K*11,K*14: native or modified lysine (ε-amide to a linker)) [Peptide 17.3]” here?
Answer: Its value is 43.

Question: And the “mean fluorescence intensity (EGFP mRNA)” value (Hela cells; HeLa, Myristoleyl, 2.5 μM)?
Answer: Its value is 64.

Question: And the “mean fluorescence intensity (EGFP mRNA)” value (Hela cells; HeLa, Petroselinyl, 10 μM)?
Answer: Its value is −16.

Question: What about the “mean fluorescence intensity (EGFP mRNA)” value (Hela cells; Hela, Dodecanal, 10 μM) of the same substance?
Answer: Its value is 52.

Question: What about the “mean fluorescence intensity (EGFP mRNA)” value (Hela cells; Hela, Myristoleyl, 5 μM) of the same substance?
Answer: The value was 6.

Question: What about the “mean fluorescence intensity (EGFP mRNA)” value (Hela cells; Hela, Myristoleyl, 10 μM) of the same substance?
Answer: Its value is 76.

Question: What about the “mean fluorescence intensity (EGFP mRNA)” value (Hela cells; Hela, Petroselinyl, 5 μM) of the same substance?
Answer: Its value is 25.

Question: What about the “percentage of GFP-silencing relative to siMOCK” value ([1]; Dodecanal, 5 μM) of the same substance?
Answer: Its value is 29%.

Question: What about the “percentage of GFP-silencing relative to siMOCK” value ([1]; Dodecanal, 10 μM) of the same substance?
Answer: Its value is 14%.

Question: What about the “percentage of GFP-silencing relative to siMOCK” value ([1]; Dodecanal, 15 μM) of the same substance?
Answer: The value was 22%.

Question: What about the “percentage of GFP-silencing relative to siMOCK” value ([1]; Myristoleyl, 5 μM) of the same substance?
Answer: The value was 43%.

Question: What about the “percentage of GFP-silencing relative to siMOCK” value ([1]; Myristoleyl, 15 μM) of the same substance?
Answer: Its value is −5%.

Question: What about the “percentage of GFP-silencing relative to siMOCK” value ([1]; Oleyl, 10 μM) of the same substance?
Answer: Its value is 22%.

Question: What about the “percentage of GFP-silencing relative to siMOCK” value ([1]; Palmitoleyl, 5 μM) of the same substance?
Answer: Its value is 36%.

Question: What about the “percentage of GFP-silencing relative to siMOCK” value ([1]; Palmitoleyl, 10 μM) of the same substance?
Answer: Its value is 24%.

Question: And the “percentage of GFP-silencing relative to siMOCK” value ([1]; Palmitoleyl, 15 μM)?
Answer: Its value is −4%.

Question: What about the “percentage of GFP-silencing relative to siMOCK” value ([1]; Petroselinyl, 5 μM) of the same substance?
Answer: The value was 36%.

Question: What about the “percentage of GFP-silencing relative to siMOCK” value ([1]; Petroselinyl, 10 μM) of the same substance?
Answer: Its value is 20%.

Question: And the “percentage of gene editing, GFP fluorescence intensity decrease (% of reduction)” value ([2]; Myristoleyl, 5 μM)?
Answer: The value was 6%.

Question: And the “percentage of gene editing, GFP fluorescence intensity decrease (% of reduction)” value ([2]; Myristoleyl, 10 μM)?
Answer: The value was 38%.

Question: And the “percentage of gene editing, GFP fluorescence intensity decrease (% of reduction)” value ([2]; Palmitoleyl, 5 μM)?
Answer: The value was −2%.

Question: What about the “percentage of gene editing, GFP fluorescence intensity decrease (% of reduction)” value ([2]; Palmitoleyl, 10 μM) of the same substance?
Answer: The value was 31%.

Question: And the “percentage of gene editing, GFP fluorescence intensity decrease (% of reduction)” value ([2]; Palmitoleyl, 15 μM)?
Answer: The value was 31%.

Question: And the “percentage of gene editing, GFP fluorescence intensity decrease (% of reduction)” value ([2]; Petroselinyl, 5 μM)?
Answer: The value was −2%.

Question: And the “percentage of gene editing, GFP fluorescence intensity decrease (% of reduction)” value ([2]; Petroselinyl, 10 μM)?
Answer: Its value is 39%.

Question: And the “percentage of gene editing, GFP fluorescence intensity decrease (% of reduction)” value ([2]; Petroselinyl, 15 μM)?
Answer: Its value is 35%.
